Test results: patent publication US20260266834A1, “Compositions And Methods For Detecting Proteins In Protein Corona” (Board of Trustees of Michigan State University, priority 2023, published 2026)

Biological target: T1, albumin (Homo sapiens, UniProt P02768)
T1 construct: commercial pooled healthy human plasma diluted to 55% by PBS; from tissue; host or cells: commercial pooled healthy human plasma
Assay: Abundance of albumin in protein corona proteome by LC-MS/MS
Conditions: PtdChos 1000 μg/ml; plasma alone over 81%
Description: For protein corona formation in the presence of small molecules, commercial pooled healthy human plasma diluted to 55% by PBS was first incubated with the individual small molecules or a combination of small molecules at varying concentrations (i.e., 10, 100, and 1,000 μg/ml) for 1 hour at 37° C., allowing the small molecules to interact with the biological matrix. The small molecule combinations included each of the four small molecules (glucose, triacylglycerols, diacylglycerols, and PtdChos for combination 1; PE, PtdIns, IMP, and vitamin B complex for combination 2) at the given concentration. […]
Initial processing: NPs coated with protein corona were first washed with PBS and then resuspended in 30 μl of PBS, enriched with 15 mM phosphate (pH 7.4). The bound total protein content was estimated to be around 1 μg per sample, determined via a Micro BCA™ assay (Thermo Scientific™). […]
LC-MS/MS Analysis: Dried samples were reconstituted with 1 μg of peptides in 25 μl of liquid chromatography (LC) loading buffer (3% acetonitrile (ACN), 0.1% trifluoroacetic acid (TFA)) and analyzed using LC-MS/MS. A 60-minute gradient was applied in the label-free quantification (LFQ) mode, with 5 μl aliquots injected in triplicate. Control samples (55% human plasma) were prepared with 8 μg of peptides in 200 μl of loading buffer and analyzed similarly. […]

T1 sequence (P02768 25-609): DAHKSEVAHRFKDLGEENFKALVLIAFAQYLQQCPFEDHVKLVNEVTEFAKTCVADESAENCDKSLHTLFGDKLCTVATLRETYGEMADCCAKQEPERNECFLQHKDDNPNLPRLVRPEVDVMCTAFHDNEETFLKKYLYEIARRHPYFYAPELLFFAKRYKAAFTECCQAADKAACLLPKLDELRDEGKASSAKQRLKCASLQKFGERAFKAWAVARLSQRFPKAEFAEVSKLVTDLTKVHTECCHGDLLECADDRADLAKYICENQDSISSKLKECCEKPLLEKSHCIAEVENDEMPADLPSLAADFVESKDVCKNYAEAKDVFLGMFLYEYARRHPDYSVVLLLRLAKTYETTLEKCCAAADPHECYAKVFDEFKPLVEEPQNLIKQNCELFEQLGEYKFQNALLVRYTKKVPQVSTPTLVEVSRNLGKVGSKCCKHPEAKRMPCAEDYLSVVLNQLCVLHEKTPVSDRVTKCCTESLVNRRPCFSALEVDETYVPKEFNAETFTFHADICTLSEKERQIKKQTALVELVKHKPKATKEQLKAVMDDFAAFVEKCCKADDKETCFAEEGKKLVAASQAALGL

Substance: phosphatidylcholine [PtdChos]
- albumin representation (share of proteins): around 17%
